From patent US20250129012A1, “ANTI-INFLAMMATORY AND ANALGESIC COMPOUNDS AND USE THEREOF” (JIANGSU ATOM BIOSCIENCE AND PHARMACEUTICAL CO., LTD., priority 2021, published 2025)
Like-named read-outs stand apart in the source and are kept apart here. Marks after values point to notes of the source that are not given here.

What was measured:
[1] = test system: gouty arthritis rats (sodium urate, right ankle and knee joint cavities); assay: Pharmacodynamics experiment B on gouty arthritis rats: gait score; type: in vivo, SD rats; conditions: for Gait Score: dose 0.6 mg/kg gavage, mean; for Gait versus model group, in words: compounds 0.6 mg/kg, colchicine 0.6 and 1.2 mg/kg
Procedure: (§1) Compounds 12, 16, 19, 30, 34, 36, 38, 40, 44, 48, 49, 52, 58, 69, 83, 98, 102, 119, 121, and 122 were prepared by grinding with 0.5% CMC-Na prior to administration and formulated into suspensions of appropriate concentration (0.12 mg/mL) for gavage, with an administered dose of 0.5 mL/100 g.
(§2) 240 SD rats, males, were acclimatized for one week and weighed 180-220 g. […] The dose of each compound group was 0.6 mg/kg. The compounds in each group were prepared into the corresponding concentration suspension, and the volume of administration was 10 mL/kg.
(§3) 250 mg of sodium urate were added to 9 mL of saline, and 1 mL of Tween-80 solution was added, the resulting mixture was heated and stirred to formulate 10 mL of sodium urate solution. The rats were grasped and fixed, and 0.2 mL of sodium urate solution was injected into the right ankle and knee joint cavities respectively to establish gouty arthritis rat model.
(§4) Before modeling, positive drug and tested compounds were pre-administered for 7 days, once a day, and modeling was performed on day 8, and drug administration by gavage continued for 3 days after modeling.
Gait was scored according to the modified gait grading criteria introduced by Coderre et al. The gait of each rat was observed before and 2 h, 4 h, 8 h, 10 h, 24 h and 48 h after modeling and graded scoring was performed. The gait grading criteria were as follows: 0 point, normal walking; 1 point, slight lameness, the lower limbs were slightly bent; 2 points: moderate lameness, the lower limbs just touched the ground; 3 points, severe lameness, the lower limbs left the ground, and walked on three feet. The mean score of each group was calculated and compared with that of the model group.
(§5) Each experimental data was expressed as the mean, and intergroup comparisons were examined for significance using the ANOVA-Dunnett T-test, with P<0.05 as the significance indicator.

[2] = test system: gouty arthritis rats (sodium urate, right ankle and knee joint cavities); assay: Pharmacodynamics experiment B on gouty arthritis rats: ankle swelling rate; type: in vivo, SD rats; conditions: Rattus norvegicus, po, read-out: Swelling rate (ankle)
Procedure: as §1, §2, §3, §4
Before modeling and 2 h, 4 h, 8 h, 10 h, 24 h and 48 h after modeling, the circumference of the right ankle joint was measured using a soft ruler or the volume change at the ankle was measured (volumetric method), and the swelling degree and swelling rate of ankle joint were calculated:
Swelling degree (mm)=measured circumference (mm)−baseline circumference (mm)
Swelling rate (%)=swelling degree (mm)/baseline circumference (mm)×100%
as §5

[3] = In vivo pharmacokinetics in SD rats; conditions: Sprague-Dawley, rat, in vivo
Procedure: Compound stock solution preparation: an appropriate amount of solid powder of the compounds were weighed separately, a certain amount of DMSO was added and 20 mg/mL of stock solution was obtained under vortex ultrasound.
Preparation of test compound for gavage: an appropriate amount of compound stock solution was taken by pipette, a certain amount of Solutol HS15 solution was added, the mixture was vortexed for 1 minute, then a certain amount of saline was added, and 1 mg/mL of solution was obtained after mixing well.
Preparation of test compounds for intravenous injection: an appropriate amount of compound stock solution was taken by pipette separately, a certain amount of Solutol HS15 solution was added, the mixture was vortexed for 1 minute, then a certain amount of physiological saline was added and a solution of 0.5 mg/mL was obtained after mixing well.
The animals were fasted overnight before administration by gavage, and food was given 4 hours after administration, during which they were free to drink. Two groups were set for each test compound, intravenous injection group and oral administration group, and the dose and mode of administration were shown in Table 12 below.
The blood samples were centrifuged at 4° C. for 5 min at 2,000 g to separate the plasma. The plasma samples were analyzed by LC/MS/MS to detect the concentration of each test compound in the plasma samples.
The parameters related to the […] were obtained by calculations with WinNonlin® Professional software.

Compound	Gait Score ([1]; 2 h)	Gait Score ([1]; 4 h)	Gait Score ([1]; 8 h)	Gait Score ([1]; 10 h)	Gait Score ([1]; 24 h)	Gait Score ([1]; 48 h)	Gait versus model group, in words [1]	change in vivo at 0.6 mg/kg ([2]; 2 h) [%]	change in vivo at 0.6 mg/kg ([2]; 4 h) [%]	change in vivo at 0.6 mg/kg ([2]; 8 h) [%]	change in vivo at 0.6 mg/kg ([2]; 10 h) [%]	change in vivo at 0.6 mg/kg ([2]; 24 h) [%]	change in vivo at 0.6 mg/kg ([2]; 48 h) [%]	also measured
COc1cc2c(c(OC)c1OC)-c1cc(I)c(OC)c(=O)cc1[C@@H](NC(C)=O)CC2 [Compound 12, (S)—N-(11-iodo-1,2,3,10-tetramethoxy-9-oxo-5,6,7,9-tetrahydrobenzo[a]heptalen-7-yl)acetamide]	0	0	0*	0*	0	0	significant improvement in gait occurred at different time points	10.8	16.5	18.7	31.4	22.8	15	–
COc1cc2c(c(OC)c1OC)-c1cc(C)c(OC)c(=O)cc1[C@@H](NC(C)=O)CC2 [Compound 16, (S)—N-(1,2,3,10-tetramethoxy-11-methyl-9-oxo-5,6,7,9-tetrahydrobenzo[a]heptalen-7-yl)acetamide]	0	0.1	0*	0*	0	0	significant improvement in gait occurred at different time points	9.71	13	17.8	17.4	18.6	6.17	–
COc1cc2c(c(OC)c1OC)-c1cc(C)c(O[C@H]3CCOC3)c(=O)cc1[C@@H](NC(C)=O)CC2 [Compound 30, N—{(S)-1,2,3-trimethoxy-11-methyl-9-oxo-10-{[(S)-tetrahydrofuran-3-yl]oxy}-5,6,7,9-tetrahydrobenzo[a]heptalen-7-yl}acetamide]	0	0	0*	0*	0.3	0	significant improvement in gait occurred at different time points	-4.04	1.2	0.57	6.69	9.77	-1.34	–
COc1cc2c(c(OC)c1OC)-c1ccc(OCC(F)(F)F)c(=O)cc1[C@@H](NC(C)=O)CC2 [Compound 36, (S)—N-{1,2,3-trimethoxy-9-oxo-10-(2,2,2-trifluoroethoxy)-5,6,7,9-tetrahydrobenzo[a]heptalen-7-yl}acetamide]	0	0	0*	0*	0.2	0.1	significant improvement in gait occurred at different time points	-3.59	2.37	2.62	10.4	10	-2.54	–
COC(=O)c1cc2c(cc(=O)c1OC)[C@@H](NC(C)=O)CCc1cc(OC)c(OC)c(OC)c1-2 [Compound 40, methyl (S)-7-acetamido-1,2,3,10-tetramethoxy-9-oxo-5,6,7,9-tetrahydrobenzo[a]heptalen-11-carboxylate]	0	0	0*	0*	0.4	0	significant improvement in gait occurred at different time points	5.81	7.96	11.2	9.9	21.7	9.33	–
COc1cc2c(c(OC)c1OC)-c1ccc(N3CCCC3=O)c(=O)cc1[C@@H](NC(C)=O)CC2 [Compound 52, (S)—N-[1,2,3-trimethoxy-9-oxo-10-(2-oxo-pyrrolidin-1-yl)-5,6,7,9-tetrahydrobenzo[a]heptalen-7-yl]acetamide]	0	0	0*	0*	0	0	significant improvement in gait occurred at different time points	11	9.83	11.8	30.2	22	7.88	–
[2H]C([2H])([2H])NC(=O)c1ccc2c(cc1=O)[C@@H](NC(C)=O)CCc1cc(OC)c(OC)c(OC)c1-2 [Compound 56, (S)-7-acetamido-1,2,3-trimethoxy-N-(trideuterio)methyl-9-oxo-5,6,7,9-tetrahydrobenzo[a]heptalen-10-carboxamide]	–	–	–	–	–	–	–	–	–	–	–	–	–	F ([3]; 10 mg/kg): 62.3%; AUC(0-inf) ([3]; iv, 1 mg/kg): 597 ng·h/mL; MRT inf ([3]; iv, 1 mg/kg): 34.9 min; Vd ([3]; iv, 1 mg/kg): 0.977 L/kg; clearance ([3]; iv, 1 mg/kg): 28.7 mL/min/kg; half-life ([3]; iv, 1 mg/kg): 35.4 min; AUC(0-inf) ([3]; po, 10 mg/kg): 3720 ng·h/mL; Cmax ([3]; po, 10 mg/kg): 1640 ng/mL; MRT inf ([3]; po, 10 mg/kg): 132 min; Tmax ([3]; po, 10 mg/kg): 25 min; half-life ([3]; po, 10 mg/kg): 76.2 min
COc1cc2c(c(OC)c1OC)-c1ccc(C(=O)N3CCOCC3)c(=O)cc1[C@@H](NC(C)=O)CC2 [Compound 83, (S)—N-{1,2,3-trimethoxy-10-(morpholine-4-carbonyl)-9-oxo-5,6,7,9-tetrahydrobenzo[a]heptalen-7-yl}acetamide]	0	0	0*	0*	0	0	significant improvement in gait occurred at different time points	8.31	10.4	16.6	21.1	26.3	15.3	–
CNC(=O)c1ccc2c(cc1=O)[C@@H](NC(=O)C1CC1)CCc1cc(OC)c(OC)c(OC)c1-2 [Compound 102, (S)-7-(3-cyclopropylcarbonylamino)-1,2,3-trimethoxy-N-methyl-9-oxo-5,6,7,9-tetrahydrobenzo[a]heptalen-10-carboxamide]	0	0	0.27	0.09*	0	0	–	14.1	13.6	14.4	19.3	16.7	9.4	–
[2H]C([2H])([2H])Oc1cc2c(c(OC)c1OC([2H])([2H])[2H])-c1ccc(C(=O)NC)c(=O)cc1[C@@H](NC(C)=O)CC2 [Compound 124, (S)-7-acetamido-1-methoxy-2,3-bis(trideuteromethoxy)-N-methyl-9-oxo-5,6,7,9-tetrahydrobenzo[a] heptalen-10-carboxamide]	–	–	–	–	–	–	–	–	–	–	–	–	–	F ([3]; 10 mg/kg): 44.7%; AUC(0-inf) ([3]; iv, 1 mg/kg): 756 ng·h/mL; MRT inf ([3]; iv, 1 mg/kg): 39.1 min; Vd ([3]; iv, 1 mg/kg): 0.864 L/kg; clearance ([3]; iv, 1 mg/kg): 22.3 mL/min/kg; half-life ([3]; iv, 1 mg/kg): 38.6 min; AUC(0-inf) ([3]; po, 10 mg/kg): 3380 ng·h/mL; Cmax ([3]; po, 10 mg/kg): 2260 ng/mL; MRT inf ([3]; po, 10 mg/kg): 103 min; Tmax ([3]; po, 10 mg/kg): 20 min; half-life ([3]; po, 10 mg/kg): 82.8 min
